According to patent US10183936B2, “Hepatitis B core protein allosteric modulators” (priority 2014, dated 2019):

Columns and labels:
AD38 cells = experiment: Viability of AD38 cells (Promega CellTiter-Glo) at the end of compound treatment; format: cell-based; details: 10 μM compound, 6 days, luminescence normalized against DMSO control wells (controls being 100%)
In short: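 AD38 cells seeded at 50,000/well received compound from a 10× solution in 10% DMSO and were incubated 6 days at 37° C. Viability was then read by CellTiter-Glo luminescence in tetracycline-free medium with 2% FBS and 1% DMSO, normalized to DMSO control wells (100%) and reported as percent viability.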

[1] = test system: HBV viral production in AD38 cells; experiment: Viral load production in AD38 cells by quantitative PCR of the HBV core sequence in supernatant; format: cell-based; details: Hepatitis B virus, 144 h; 10 μM compound, 6 days at 37° C., viral load in supernatant compared against DMSO control wells; read-out: AD38 Viral Load (CpAM/DMSO %) at 10 μM
In short: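 AD38 cells seeded at 50,000/well, treated 6 days at 37° C with compound added as 10× solution in 10% DMSO. HBV core sequence in clarified supernatant quantified by TaqMan qPCR against known standards; viral load compared with DMSO control wells.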

| Compound | AD38 Viability Normalized Result (CPAM/DMSO %) at 10 μM (AD38 cells) [%] | activity at 10 µM [1] [%] |
| --- | --- | --- |
| O=C(Nc1cccc(-c2ccccc2)c1)c1ccc2c(c1)NC(=O)c1ccccc1S2(=O)=O [Compound 1458] | 49 | 12 |
| Cc1c(C(=O)NCCc2ccccn2)ccc2c1NC(=O)c1ccccc1S2 [Compound 1459] | 92 | 4 |
| O=C(Nc1ccncc1)c1ccc2c(c1)NC(=O)c1ccccc1S2(=O)=O [Compound 1462] | 99 | 35 |
| O=C(Nc1ccncc1)c1ccc2c(c1)NC(=O)c1c(F)cccc1S2 [Compound 1463] | 97 | 31 |
| O=C(NCCc1cncnc1)c1ccc2c(c1)NC(=O)c1ccccc1N2Cc1ccccc1 [Compound 1464] | 98 | 49 |
| O=C(NCCc1ccc(-c2ccccc2)cc1)c1ccc2c(c1)NC(=O)c1c(F)cccc1S2 [Compound 1465] | 106 | 39 |
| O=C(NCCc1ccc(-c2ccccc2)cc1)c1ccc2c(c1)NC(=O)c1cccc(F)c1S2 [Compound 1466] | 88 | 7 |
| Cc1c(C(=O)NCCc2cccnc2)ccc2c1NC(=O)c1ccccc1S2 [Compound 1467] | 92 | 1 |
| O=C(Nc1cccc(-c2cccc(O)c2)c1)c1ccc2c(c1)NC(=O)c1cc(F)ccc1S2 [Compound 1468] | 97 | 76 |
| O=C(NCCc1ccccn1)c1ccc2c(c1)NC(=O)c1c(F)cccc1S2 [Compound 1471] | 97 | 16 |
| O=C(Nc1cccc(-c2ccccc2)c1)c1ccc2c(c1)NC(=O)c1c(F)cccc1S2 [Compound 1472] | 95 | 37 |
| O=C1Nc2cc(S(=O)(=O)NCc3cncnc3)ccc2Sc2ccccc21 [Compound 1473] | 97 | 81 |
| O=C(NCCc1ccccn1)c1ccc2c(c1)NC(=O)c1ccccc1N2Cc1ccccc1 [Compound 1474] | 101 | 51 |
| O=C(NCCc1cccnc1)c1ccc2c(c1)NC(=O)c1ccccc1N2Cc1ccccc1 [Compound 1475] | 107 | 47 |
| O=C(NCCc1ccc(-c2ccccc2)cc1)c1ccc2c(c1)NC(=O)c1ccccc1[S+]2[O-] (stereo not shown) [Compound 1476] | 86 | 1 |
| CN(C)S(=O)(=O)c1ccc(CCNC(=O)c2ccc3c(c2)NC(=O)c2c(F)cccc2S3)cc1 [Compound 1477] | 16 | 67 |
| Cc1c(C(=O)NCc2cncnc2)ccc2c1NC(=O)c1ccccc1S2 [Compound 1478] | 94 | 2 |
| O=C(Nc1ncc(-c2ccccc2)o1)c1ccc2c(c1)NC(=O)c1cc(F)ccc1S2 [Compound 1480] | 95 | 72 |
| O=C(Nc1ncc(-c2ccccc2)s1)c1ccc2c(c1)NC(=O)c1cc(F)ccc1S2 [Compound 1481] | 100 | 46 |
| O=C(NCc1cncnc1)c1ccc2c(c1)NC(=O)c1ccccc1N2Cc1ccccc1 [Compound 1482] | 98 | 46 |
| O=C(NCCc1ccc(-c2ccccc2)cc1)c1ccc2c(c1)NC(=O)c1ccccc1N2Cc1ccccc1 [Compound 1483] | 98 | 65 |
| O=C(Nc1cccc(-c2ccccc2)c1)c1ccc2c(c1)NC(=O)c1ccccc1N2Cc1ccccc1 [Compound 1484] | 100 | 26 |
| O=C(NCCc1cnco1)c1ccc2c(c1)NC(=O)c1ccccc1[S+]2[O-] (stereo not shown) [Compound 1485] | 96 | 30 |
| CN(C)S(=O)(=O)c1ccc(CCNC(=O)c2ccc3c(c2)NC(=O)c2ccccc2[S+]3[O-])cc1 (stereo not shown) [Compound 1486] | 94 | 53 |
| O=C(NCCc1cnco1)c1ccc2c(c1)NC(=O)c1cccc(F)c1S2 [Compound 1487] | 96 | 15 |
| CN(C)S(=O)(=O)c1ccc(CCNC(=O)c2ccc3c(c2)NC(=O)c2cccc(F)c2S3)cc1 [Compound 1488] | 97 | 84 |
